Key:
A549 cells = format: cell-based, human; conditions: within 1-2 minutes
From the text: Measurement of intra- and extracellular chaetocin levels: Tumor cells treated with indicated chaetocin concentrations were washed twice with ice cold PBS, immediately solubilized in 0.5 M perchloric acid, and evaluated “real time” via HPLC using Beckman System Gold Nouveau Software with a dual pump 125 gradient pump system, 507e autosampler, 168 diode array detector, and Beckman Ultrasphere ODS column (4.6 mm×[…]×7 μm) using the following elution profile: 100% water to 100% methanol linear gradient over 40 minutes, followed by a 10 minute period of elution with 100% methanol. Quantitation was accomplished using a standard curve of peak areas derived from analogous HPLC data using varying concentrations of chaetocin.

U266 myeloma cells = assay: ROS (superoxide) by FACS with hydroethidium in U266 cells; format: cell-based, human; conditions: 200 nM, p<0.001
Method: FIG. 7. […] A549 cells were exposed to the indicated concentration of chaetocin for 24 hours, with addition of glutathione or diluent 30 minutes prior to chaetocin addition. Glutathione levels were assessed by spectrophotometric assay as described below. […] Cells were treated with 10 μM chaetocin for 20 minutes prior to assay, and calculated intracellular chaetocin levels were measured by HPLC with adjusted for differences in average cell volume (calculated from measured cell radii ascertained via light microscopy). Shaded area represents 1 standard deviation confidence interval, with central bar reflecting the mean relative intracellular chaetocin level. […] Cells from 4 myeloma patients were exposed to 200 μM hydrogen peroxide for 24 hours prior to assay, with trypan blue exclusion used to assess surviving cells.
Assessment of cellular oxidative stress: Cellular oxidative stress was assessed utilizing 5,6-chloromethyl-2′,7′-dichlorodihydrofluorescein diacetate or hydroethidium (Molecular Probes/Invitrogen, Carlsbad, Calif.) as cell permeable fluorescent probes and FACS analyses.

TrxR1 = target: T1, TrxR1 (Rattus norvegicus, UniProt O89049); format: biochemical; set-up: rat liver thioredoxin reductase; purchased Sigma (St. Louis, Mo.); conditions: mass spectroscopy; data not shown
T1 sequence (O89049 1-499): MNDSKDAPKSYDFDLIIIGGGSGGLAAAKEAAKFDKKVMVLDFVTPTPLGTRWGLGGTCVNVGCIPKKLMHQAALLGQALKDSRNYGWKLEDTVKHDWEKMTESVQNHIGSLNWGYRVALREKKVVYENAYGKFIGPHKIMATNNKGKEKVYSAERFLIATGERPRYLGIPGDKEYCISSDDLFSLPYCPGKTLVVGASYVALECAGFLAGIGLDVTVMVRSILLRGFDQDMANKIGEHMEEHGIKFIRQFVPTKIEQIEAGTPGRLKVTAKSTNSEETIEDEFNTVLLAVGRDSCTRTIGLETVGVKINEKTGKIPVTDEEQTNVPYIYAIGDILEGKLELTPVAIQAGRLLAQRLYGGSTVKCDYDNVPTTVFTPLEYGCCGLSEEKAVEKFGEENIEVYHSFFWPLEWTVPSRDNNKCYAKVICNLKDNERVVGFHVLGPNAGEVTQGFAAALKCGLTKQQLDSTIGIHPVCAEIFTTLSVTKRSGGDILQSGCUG
Method: Samples were allowed to react at 22° C. for 15 min and then processed for analysis by desalting and fractionating using C18 ZipTips (Millipore Corporation, Bedford, Mass.). For the DTT/chaetocin reaction, the reaction proceeded for 20 min and was then spun down to remove precipitated insulin before loading onto ZipTips. ZipTips were conditioned with 60% acetonitrile:39% water:1% acetic acid and equilibrated with 1% acetic acid. Samples were acidified with glacial acetic acid and loaded onto an equilibrated ZipTip and washed with 1% acetic acid. Fractions were step-eluted off the ZipTip using 10 μl of 1% acetic acid in water containing 20, 30, 40, or 60% acetonitrile. Collected fractions were injected by loop injection (2 μl) directly into the mass spectrometer using a mobile phase of 30% acetonitrile:69% water:1% acetic acid at 5 μl/min. Mass spectra were collected on an Agilent Technologies LC/MSD-TOF mass spectrometer in positive electrospray ionization mode over a m/z range of 400 to 1500. The capillary, fragmentor, skimmer, and OCT RF voltages (3500, 185, 60, 200 volts, respectively) were optimized to enhance signal and minimize instrument fragmentation.

[1] = test system: freshly collected sorted patient CD138+ myeloma cells; conditions: ex vivo, 24 hours, trypan blue exclusion
Method: FIG. 3. […] Survival indicated in A-E was assessed using a trypan blue exclusion assay, counting viable cells using a hemocytometer after 24 hour exposure to the indicated drugs and drug concentrations.
Patient bone marrow leukocytes were divided into myeloma (CD138+) and non-myeloma/normal leukocyte (CD138−) fractions employing sorting using magnetic bead technology in kit form (MACS CD138 microbeads, Miltenyi Biotech, Auburn, Calif.). Sorted cells were plated in a 96-well tissue culture plate at a concentration of 5×10^5 cells and dosed with indicated drug concentrations for 24 hours. Survival was assessed using a trypan blue exclusion assay.

thioredoxin = target: T2, thioredoxin (Escherichia coli, UniProt P0AA25); assay: Thioredoxin activity assay (insulin precipitation); format: biochemical, E. coli; conditions: higher chaetocin concentrations; read-out: IC50, Trx activity inhibition
T2 construct: purchased Promega (Madison, Wis.)
T2 sequence (P0AA25 whole entry): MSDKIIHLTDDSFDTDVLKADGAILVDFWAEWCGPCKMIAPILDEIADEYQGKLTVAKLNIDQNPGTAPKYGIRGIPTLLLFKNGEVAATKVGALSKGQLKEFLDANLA
Method: (§1) HeLa cells were obtained from ATCC.
Thioredoxin Activity Assay: The 100 μL reaction contained 100 mM potassium phosphate (pH 7.0), 2 mM EDTA, 0.13 mM bovine insulin, 3.9 μM E. coli thioredoxin and chaetocin as indicated. The reaction was initiated by addition of 0.33 mM DTT, and turbidity was monitored at 620 nm in a plate reader. The initial linear rate was calculated based on the slope of the line after an increase in absorbance (indicating precipitation of insulin) started to occur.

thioredoxin reductase = target: T3, thioredoxin reductase (Rattus norvegicus, UniProt O89049); assay: Thioredoxin reductase activity assay (gel-based oxidation state of thioredoxin method); format: biochemical
T3 construct: rat liver thioredoxin reductase; purchased Sigma (St. Louis, Mo.); host or cells: rat liver
T3 sequence (O89049 1-499): T1 sequence (O89049 1-499)
Method: as §1
Thioredoxin Reductase Activity Assay (gel-based oxidation state of thioredoxin method): Reduction of thioredoxin by thioredoxin reductase was measured by the decrease in electrophoretic mobility caused by covalent modification of thioredoxin (by AMS) when the disulfide is reduced. […] At the indicated time, a 5 μL sample was removed and immediately added to 5 μL of 30 mM AMS in TE buffer (pH 7.5). The AMS was allowed to react (15 minutes at 22° C.) with reduced thioredoxin sulfhydryl groups, then the samples were mixed with non-reducing sample buffer and were electrophoresed on 18% Tris-HCl SDS-PAGE gels. The gels were stained with Coomassie blue and bands were imaged and quantitated using a Syngene InGenius gel documentation system (Frederick, Md.).

**Q.** For `CN1C(=O)[C@@]23C[C@]4([C@]56C[C@@]78SS[C@@](CO)(C(=O)N7[C@H]5Nc5ccccc56)N(C)C8=O)c5ccccc5N[C@@H]4N2C(=O)[C@]1(CO)SS3` [chaetocin], which “intracellular accumulation relative to applied extracellular concentration” value (A549 cells) is on record?
**A.** Its value is 10 fold.

**Q.** And the “peak shift (ROS, hydroethidium) relative to stained, untreated cells” value (U266 myeloma cells)?
**A.** Its value is 43.26+3.67.

**Q.** What about the “covalent adduct with TrxR1” value (TrxR1) of the same compound?
**A.** Its value is “no evidence of a covalent chaetocin-TrxR1 adduction”.

**Q.** And the “effect on matched CD138- normal bone marrow leukocytes” value [1]?
**A.** The value was “largely sparing”.

**Q.** And the IC50 (thioredoxin)?
**A.** Its IC50 is about 90 µM.

**Q.** What about the “inhibition of reduction of thioredoxin by thioredoxin reductase” value (thioredoxin reductase; gel-based, AMS modification) of the same compound?
**A.** Its value is “inhibit the ability of TrxR1 to reduce Trx”.

**Q.** What about the IC50 (thioredoxin reductase; initial linear portion of the reaction, read-out: IC50, reduction of thioredoxin by thioredoxin reductase) of the same compound?
**A.** Its IC50 is 4 µM.

— US20090264421A1 (priority 2007, published 2009)
